Results published in patent US6328989A, “Use of bicozamycin for the manufacture of a medicament for treating infections with enterohemorrhagic e. coli” (Fujisawa Pharmaceutical Co., Ltd., priority 1997, dated 2001).
Values after ≈ are worked out from the molar mass of the structure shown. Values joined by “and” are separate entries in the source; they are usually repeats but may differ in a detail not shown here. Equal entries are not always repeated. Where two headings read alike, the source gives them in different places.

What was measured:
[1] = system: E. coli O-157:H7; assay: Minimum inhibitory concentration (MIC) against E. coli O-157:H7 strains by agar dilution method; assay type: cell-based; conditions: for MIC50 / MIC90: Escherichia coli, 18 h, 20 strains
[2] = system: VT1; assay type: cell-based, E. coli O-157:H7; conditions: 3h; for VT1 released: control 0h <2, control 3h 2; for VT1 released, ratio to control at 0h: control 3h ratio 2; for VT1 intracellular, ratio to control at 0h: control 3h ratio 32
[3] = system: VT2; assay type: cell-based, E. coli O-157:H7; conditions: 3h; for VT2 released: control 0h <2, control 3h 8; for VT2 intracellular: control 0h <2, control 3h 16; for VT2 released, ratio to control at 0h: control 3h ratio 8; for VT2 intracellular, ratio to control at 0h: control 3h ratio 16
[4] = system: Verotoxins (VT1 and VT2); assay type: cell-based, E. coli O-157:H7; conditions: concentration greater than MIC; compared with untreated E. coli
[5] = system: VT2; assay: Amount of VT2 in cecum of mice infected with E. coli O-157 (VTEC-RPLA); assay type: in vivo, E. coli FP1962 in DBA/2 mice; conditions: day 6
[6] = system: VT1; assay: Amount of VT1 in cecum of mice infected with E. coli O-157 (VTEC-RPLA); assay type: in vivo, E. coli FP1962 in DBA/2 mice; conditions: day 6
[7] = system: verotoxins; parameters: species or system E. coli FP1962 in DBA/2 mice; conditions: mouse, in vivo, po
[8] = system: E. coli O-157; assay: Viable cells in the cecum of mice infected with E. coli O-157; assay type: in vivo, E. coli FP1962 in DBA/2 mice; conditions: for Number of cells in cecum, individual mouse / Number of cells in cecum, mean: day 6; for Number of cells in cecum, individual mouse: DBA/2 mice; for Number of cells in cecum, mean: control mean 3.4 × 10^7
[9] = system: E. coli O-157; assay: Death of mice infected with E. coli O-157; assay type: in vivo, E. coli FP1962 in DBA/2 mice; conditions: 10 mg/kg/dose orally twice a day for 4 days
[10] = 32 mg/kg/dose orally twice a day for 4 days
[11] = 10 mg/kg/dose orally twice a day for 4 days

SMILES	MIC50 ([1]; aerobic) [µg/mL]	MIC90 ([1]; aerobic) [µg/mL]	MIC50 ([1]; anaerobic) [µg/mL]	MIC90 ([1]; anaerobic) [µg/mL]	VT1 released ([2]; 10 μg/ml) [maximum dilution times]	VT1 released, ratio to control at 0h ([2]; 10 μg/ml)	VT1 intracellular, ratio to control at 0h ([2]; 10 μg/ml)	VT2 released ([3]; 10 μg/ml) [maximum dilution times]	VT2 intracellular ([3]; 10 μg/ml) [maximum dilution times]	VT2 released, ratio to control at 0h ([3]; 10 μg/ml)	VT2 intracellular, ratio to control at 0h ([3]; 10 μg/ml)	production and release of verotoxins [4]	Amount of VT2 in cecum, individual mouse [5, 10]	Amount of VT1 in cecum, individual mouse [6, 10]	Number of cells in cecum, individual mouse [8, 10]	Number of cells in cecum, mean [8, 10]	other results
CC1(C)S[C@@H]2[C@H](NC(=O)[C@H](N)c3ccc(O)cc3)C(=O)N2[C@H]1C(=O)O [AMX, Amoxicillin]	3.13 (≈ 8.57 µM)	6.25 (≈ 17.1 µM)	1.56 (≈ 4.27 µM)	3.13 (≈ 8.57 µM)	≥ 256	≥ 256	32	8	4	8	4	both production and release of verotoxins increased much more than those with an untreated E. coli	–	–	–	–	MIC distribution: number of strains with MIC 1.56 μg/ml [1]: 14 strains; MIC distribution: number of strains with MIC 6.25 μg/ml [1]: 2 strains; MIC distribution: number of strains with MIC >100 μg/ml ([1]; aerobic, 20 strains tested): 1 strains; MIC distribution: number of strains with MIC >100 μg/ml ([1]; anaerobic, 20 strains tested): 1 strains; VT1 intracellular ([2]; 10 μg/ml, control 0h 2, control 3h 64): 64 maximum dilution times
C=C1CCO[C@]2([C@@H](O)[C@@](C)(O)CO)NC(=O)[C@@]1(O)NC2=O [BCM, Bicozamycin]	25 (≈ 82.7 µM)	25 (≈ 82.7 µM)	12.5 (≈ 41.4 µM)	25 (≈ 82.7 µM)	8	8	16	2	4	2	4	increases in production and release of verotoxins were dramatically suppressed	< 2 titer and 2 titer	< 2 titer	4.5 × 10^3 cfu/site and 1.0 × 10^2 cfu/site and 8.5 × 10^3 cfu/site and 3.5 × 10^3 cfu/site and 1.0 × 10^5 cfu/site	2.2 × 10^3 cfu/site	MIC distribution: number of strains with MIC 25 μg/ml ([1]; aerobic, 20 strains tested): 20 strains; MIC distribution: number of strains with MIC 12.5 μg/ml ([1]; anaerobic, 20 strains tested, MIC 12.5 μg/ml): 15 strains; MIC distribution: number of strains with MIC 25 μg/ml ([1]; anaerobic, 20 strains tested): 5 strains; VT1 released ([2]; 25 μg/ml): 8 maximum dilution times; VT1 released, ratio to control at 0h ([2]; 25 μg/ml): 8; VT1 intracellular, ratio to control at 0h ([2]; 25 μg/ml): 1; VT1 released ([2]; 100 μg/ml): 8 maximum dilution times; VT1 released, ratio to control at 0h ([2]; 100 μg/ml): 8; VT1 intracellular, ratio to control at 0h ([2]; 100 μg/ml): 1; production and release of verotoxins [7]: suppressed the production and release of verotoxins; antimicrobial activity against VTEC ([8]; infected mice, 32 mg/kg/dose orally): showed an antimicrobial activity against VTEC; VT2 released ([3]; 25 μg/ml): < 2 maximum dilution times; VT2 intracellular ([3]; 25 μg/ml): < 2 maximum dilution times; VT2 released, ratio to control at 0h ([3]; 25 μg/ml): 1; VT2 intracellular, ratio to control at 0h ([3]; 25 μg/ml): 1; VT2 released ([3]; 100 μg/ml): < 2 maximum dilution times; VT2 intracellular ([3]; 100 μg/ml): < 2 maximum dilution times; VT2 released, ratio to control at 0h ([3]; 100 μg/ml): 1; VT2 intracellular, ratio to control at 0h ([3]; 100 μg/ml): 1
CC[C@H]1OC(=O)[C@H](C)[C@@H](O[C@H]2C[C@@](C)(OC)[C@@H](O)[C@H](C)O2)[C@H](C)[C@@H](O[C@@H]2O[C@H](C)C[C@H](N(C)C)[C@H]2O)[C@](C)(OC)C[C@@H](C)C(=O)[C@H](C)[C@@H](O)[C@]1(C)O [CAM, clathromycin]	–	–	–	–	–	–	–	–	–	–	–	–	2 titer and 4 titer and < 2 titer and 8 titer	2 titer and 4 titer	2.4 × 10^7 cfu/site and 7.9 × 10^7 cfu/site and 1.0 × 10^8 cfu/site and 1.3 × 10^8 cfu/site and 7.0 × 10^6 cfu/site and 4.1 × 10^8 cfu/site	6.5 × 10^7 cfu/site	–
C[C@@H]1O[C@@H]1P(=O)(O)O [FOM, fosfomycin]	–	–	–	–	–	–	–	–	–	–	–	–	< 2 titer and 32 titer and 4 titer and 16 titer	< 2 titer	7.1 × 10^5 cfu/site and 3.0 × 10^4 cfu/site and 1.2 × 10^8 cfu/site and 4.6 × 10^7 cfu/site and 9.8 × 10^6 cfu/site and 4.9 × 10^7 cfu/site	6.2 × 10^6 cfu/site	–
CCn1cc(C(=O)O)c(=O)c2cc(F)c(N3CCNCC3)cc21 [NFLX, norfloxacin]	–	–	–	–	–	–	–	–	–	–	–	–	–	–	–	–	death, individual mouse [9]: died; tested mice that died due to increased verotoxins [9]: Five of 6; Amount of VT2 in cecum, individual mouse [5, 11]: 16 titer; Amount of VT1 in cecum, individual mouse [6, 11]: 2 titer; Number of cells in cecum, individual mouse [8, 11]: 6.9 × 10^5 cfu/site; Number of cells in cecum, mean [8, 11]: 6.9 × 10^5 cfu/site
